Measurements from paper PMC9048848 (RSC Advances, 2020).

Biological target: T1, PTP1B (Homo sapiens, UniProt P18031)
T1 sequence (P18031 1-321): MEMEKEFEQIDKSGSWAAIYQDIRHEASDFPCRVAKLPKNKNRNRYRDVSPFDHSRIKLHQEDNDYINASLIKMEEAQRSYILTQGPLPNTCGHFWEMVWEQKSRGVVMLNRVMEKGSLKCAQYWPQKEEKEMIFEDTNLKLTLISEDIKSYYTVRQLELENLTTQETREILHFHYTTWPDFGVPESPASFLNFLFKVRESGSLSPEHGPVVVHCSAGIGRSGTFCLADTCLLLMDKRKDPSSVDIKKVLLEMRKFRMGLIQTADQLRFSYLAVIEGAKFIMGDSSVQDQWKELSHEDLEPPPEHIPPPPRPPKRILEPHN
Assay: SPR
Format: binding

Kd: 3.3 µM
SMILES: CCOCc1cc(O)c(O)c(Br)c1Cc1cc(O)c(O)c(Br)c1Br [BPN, 3,4-Dibromo-5-(2-bromo-6-(ethoxymethyl)-3,4-dihydroxybenzyl)benzene-1,2-diol]
